Reference: patent US20130261045A1, “GREEN TEA POLYPHENOL ALPHA SECRETASE ENHANCERS AND METHODS OF USE” (UNIVERSITY OF SOUTH FLORIDA, priority 2005, published 2013)

Columns and labels:
[1] = test system: Aβ1-40 and Aβ1-42; experiment: Aβ1-40/Aβ1-42 ELISA, Tg2576 mouse-derived primary neuronal cells; type: cell-based; details: Tg2576 primary neurons; various doses, 8 h
[2] = test system: Aβ1-40 and Aβ1-42; experiment: Aβ1-40/Aβ1-42 ELISA, conditioned media of SweAPP N2a cells (Examples 6-7, with or without siRNA knock-down); type: cell-based, murine; details: various doses of EGCG, 8 h
Source text: FIGS. 8A-8H show EGCG-induced ADAM10 activation correlates with APP α-secretase cleavage in vitro. […] Data were represented as % change relative to control (medium from cultured SweAPP N2a cells or primary neuronal cells without any treatment).
FIGS. 10A-10C show ADAM10 is required for EGCG-induced APP α-secretase cleavage. […] In FIG. 10A, cell lysates were subjected to WB for APP CTFs and ADAM10 cleavage analyses. […] In FIG. 10B, cell culture media were subjected to WB for sAPP-α secretion. […] In FIG. 10C, cell culture media were subjected to Aβ ELISA. Data are represented as % change relative to control (medium from cultured SweAPP N2a cells without any treatment). […]
Conditioned media were collected and analyzed at a 1:1 dilution using the method as previously described (Tan et al., 2002) and values were reported as percentage of Aβ1-x secreted relative to control. Quantitation of total Aβ species was performed according to published methods (Marambaud, P. et al., 2005). […] The optical density of each well was immediately determined by a microplate reader at 450 nm. In addition, Aβ1-40, or Aβ1-42 was separately quantified in these samples using the Aβ1-40 Aβ1-42 ELISA kits (IBL-America, Minneapolis, Minn.) in accordance with the manufacturer's instructions. In all cases, Aβ levels were expressed as a percentage of control (conditioned medium from untreated SWeAPP N2a cells). […]

[3] = test system: ADAM10; experiment: Western blot of ADAM10 maturation in SweAPP N2a cells; type: cell-based, murine
Description: Cultured cells were lysed in ice-cold lysis buffer described above, and an aliquot corresponding to 50 μg of total protein was electrophoretically separated using 16.5% Tris-tricine gels. Electrophoresed proteins were then transferred to PVDF membranes (Bio-Rad, Richmond, Calif.), washed in ddH2O, and blocked for 1 h at ambient temperature in Tris-buffered saline (TBS; Bio-Rad) containing 5% (w/v) non-fat dry milk. After blocking, membranes were hybridized for 1 h at ambient temperature with various primary antibodies. Membranes were then washed 3 times for 5 min each in ddH2O and incubated for 1 h at ambient temperature with the appropriate HRP-conjugated secondary antibody (1:1,000, Pierce Biotechnology, Inc. Rockford, Ill.). All antibodies were diluted in TBS containing 5% (w/v) of non-fat dry milk. Blots were developed using the luminol reagent (Pierce Biotechnology). Densitometric analysis was done using the Fluor-S MultiImager™ with Quantity One™ software (Bio-Rad). For examining sAPP-α, conditioned medium was collected following treatment according to a modified protocol from Chen and Fernandez (Chen et al., 2004). sAPP-α was extracted using 3K Nanosep centrifugal filters (Pall Life Sciences, Ann Arbor, Mich.) and protein concentrate was prepared for the aforementioned electrophoresis. […]

[4] = test system: TNF-α; experiment: TNF-α levels in cultured medium of microglial cells; type: cell-based; details: EGCG treatment, data not shown
Source text: It has been shown that TACE is critically involved in TNF-α maturation associated with pro-inflammatory responses (Moro, M. A. et al., 2003).

## O=C(O[C@@H]1Cc2c(O)cc(O)cc2O[C@@H]1c1cc(O)c(O)c(O)c1)c1cc(O)c(O)c(O)c1 [EGCG, (−)-epigallocatechin-3-gallate]
[1]
  Aβ1-40 levels: dose-dependent reductions
  Aβ1-42 levels: dose-dependent reductions
[2]
  Aβ1-40 concentration: dose-dependent reductions
  Aβ1-42 concentration: dose-dependent reductions
[3]; 20 μM, as early as 30 min, continued to increase through 120 min
  mature ADAM10, temporal analysis: significant increases
[3]; various doses of EGCG, 8 h
  mature ADAM10 (~60 kDa isoform) protein level: dose-dependently increased
[4]
  TNF-α levels in cultured medium: no associated elevation
